The source of these data is patent publication US20110230476A1, “PI3 KINASE INHIBITORS AND USES THEREOF” (AVILA THERAPEUTICS, INC., priority 2009, published 2011).

The target of one test is T1, PI3Kα (p110α/p85α) (Homo sapiens, UniProt P42336).
T1 construct: purchased BPS Bioscience (San Diego, Calif.) or Millipore (Billerica, Mass.)
The test can be described thus: HTRF assay, potency against active PI3Kα. In kind it is biochemical. The conditions noted are these: HTRF; [ATP]=50 μM, [di-C8-PIP2]=10 μM; 30 min pre-incubation; read-out: PI3Kα Inhibition. The method, boiled down:
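IC50 came from a variable-slope fit of % inhibition, calculated from the HTRF emission ratio relative to wells with and without enzyme. Reactions with the active enzyme complex ran 30-60 minutes at 25 °C after ATP addition before stop and detection reagents.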
(In general: In TR-FRET formats the signal depends on donor and acceptor labels being close together.)

The target in a further test is T2, PI3Kγ (p120γ) (Homo sapiens, UniProt P48736).
T2 construct: purchased BPS Bioscience (San Diego, Calif.) or Millipore (Billerica, Mass.)
The test can be described thus: HTRF assay, potency against active PI3Kγ. It counts as biochemical. The conditions noted are these: [ATP]=50 μM, [di-C8-PIP2]=10 μM, 30 min pre-incubation, read-out: PI3Kγ Inhibition. The source says: Homogeneous Time Resolved Fluorescence (HTRF) Assay Protocol for Potency Assessment Against the Active Forms of PI3Kα, PI3Kβ, and PI3Kγ
The protocol below describes an end-point, competition-binding HTRF assay used to measure inherent potency of test compounds against active PI3Kα (p110α/p85α), PI3Kβ (p110β/p85α), and PI3Kγ (p120γ) enzymes. The mechanics of the assay platform are best described by the vendor (Millipore, Billerica, Mass.) on their website at the following URL: www.millipore.com/coa/tech1/74jt4z.
Briefly, Stop solution (Stop A, #33-007 and Stop B, #33-009; 3:1 ratio) and Detection Mix (from DMC, #33-015 with DMA, #33-011 and DMB, #33-013; 18:1:1 ratio) were prepared as recommended by the manufacturer about 2 hrs prior to use. Additionally, 1× reaction buffer (from 4× buffer stock# 33-003), 1.4× stocks of PI3Kα, PI3Kβ, and PI3Kγ enzymes from BPS Bioscience (San Diego, Calif.) or Millipore (Billerica, Mass.) with di-C8-PIP2 lipid substrate (#33-005), and a 4×ATP solution (#A7699 Sigma/Aldrich; St. Louis, Mo.) were prepared in 1× reaction buffer. 15 μL of PI3K enzymes and lipid substrate mix were pre-incubated in a Corning (#3573) 384-well, black, non-treated microtiter plate (Corning, N.Y.) for 30 min at 25° C. with a 0.5 μL volume of 50% DMSO and serially diluted compounds prepared in 50% DMSO. Lipid kinase reactions were started with the addition of 5 μL of ATP solution, mixed for 15 sec on a rotary plate shaker and incubated for 30-60 minutes at 25° C. Next, reactions were stopped with a 5 μL addition of Stop solution immediately followed by a 5 μL volume of Detection Mix. Stopped reactions were equilibrated for 1 and 18 hrs at room temperature and read in a Synergy^4 plate reader from BioTek (Winooski, Vt.) at λex330-80/λem620-35 and λem665-7.5. At the conclusion of each assay, the HTRF ratio from fluorescence emission values for each well was calculated and % Inhibition determined from averaged controls wells (+/−PI3K enzyme). % Inhibition values for each compound were then plotted against inhibitor concentration to estimate IC50 from log [Inhibitor] vs Response, Variable Slope model in GraphPad Prism from GraphPad Software (San Diego, Calif.).
[Reagent] used in optimized protocol: • [p110α/p85α]=0.5-1.5 nM, [ATP]=50 μM, [di-C8—PIP2]=10 μM • [p110β/p85α]=0.75 nM, [ATP]=50 μM, [di-C8—PIP2]=10 μM • [p120γ]=2-2.5 nM, [ATP]=50 μM, [di-C8—PIP2]=10 μM • (ATP KMapp for both enzymes was estimated to be 40-70 μM)

The test system of the next test is Phospho-Akt(Ser473). The test can be described thus: Dose response in SKOV3 cells as determined by in-cell Western. It counts as cell-based. The conditions noted are these: Homo sapiens, SK-OV-3; SKOV3 cells, 1 hr; read-out: pAKT Inhibition in cell Western. The protocol: Dose Response in SKOV3 Cells as Determined by in-Cell Western
Twenty four hours later the media was removed and replaced with 100 ul media containing test compound or control compound and cells were returned to the incubator for 1 hr. At the end of the hour, the media was removed and the cells were washed once with PBS, then fixed for 20 minutes at room temperature in 4% formaldehyde in PBS. The formaldehyde was removed and cells were washed 5 times for 5 minutes with 100 ul of Permeabilization Buffer (PBS+0.1% Triton X-100) at room temperature with gentle shaking. The last wash was removed and replaced with 150 ul of Odyssey Blocking Buffer (Li-Cor, Lincoln, Nebr.) and incubated for 90 minutes at room temperature with gentle shaking.
The Blocking Buffer was then replaced with 50 ul of primary antibody mix (rabbit anti-Phospho-Akt(Ser473) at 1:100 (Cell Signaling Technology, Boston, Mass.) and mouse anti-tubulin at 1:5000 (Sigma Aldrich, St. Louis, Mo.) diluted in Odyssey Blocking Buffer) and incubated overnight at room temperature with gentle shaking.
The next morning, the antibody mix was removed and the wells were washed 5 times for 5 minutes with PBS+0.1% Tween-20. The last wash was replaced with 50 ul of secondary antibody mix (goat anti-rabbit-IRDye-680 and goat anti-mouse-IRDye-800 (Li-Cor), both diluted 1:1000 in Odyssey Blocking Buffer+0.2% Tween-20) and incubated for 1 hour at room temperature with gentle shaking. The antibody mix was removed and the wells were washed 5 times for 5 minutes in PBS+0.1% Tween-20, then 1 time with ddH2O.
The plates were scanned on an Odyssey machine (Li-Cor) with a 3 mm focus offset at an intensity of 8 in both channels and the data was analyzed using the Odyssey software.

pEC50, pIC50: −log10 of the molar value.

T2 sequence (P48736 whole entry): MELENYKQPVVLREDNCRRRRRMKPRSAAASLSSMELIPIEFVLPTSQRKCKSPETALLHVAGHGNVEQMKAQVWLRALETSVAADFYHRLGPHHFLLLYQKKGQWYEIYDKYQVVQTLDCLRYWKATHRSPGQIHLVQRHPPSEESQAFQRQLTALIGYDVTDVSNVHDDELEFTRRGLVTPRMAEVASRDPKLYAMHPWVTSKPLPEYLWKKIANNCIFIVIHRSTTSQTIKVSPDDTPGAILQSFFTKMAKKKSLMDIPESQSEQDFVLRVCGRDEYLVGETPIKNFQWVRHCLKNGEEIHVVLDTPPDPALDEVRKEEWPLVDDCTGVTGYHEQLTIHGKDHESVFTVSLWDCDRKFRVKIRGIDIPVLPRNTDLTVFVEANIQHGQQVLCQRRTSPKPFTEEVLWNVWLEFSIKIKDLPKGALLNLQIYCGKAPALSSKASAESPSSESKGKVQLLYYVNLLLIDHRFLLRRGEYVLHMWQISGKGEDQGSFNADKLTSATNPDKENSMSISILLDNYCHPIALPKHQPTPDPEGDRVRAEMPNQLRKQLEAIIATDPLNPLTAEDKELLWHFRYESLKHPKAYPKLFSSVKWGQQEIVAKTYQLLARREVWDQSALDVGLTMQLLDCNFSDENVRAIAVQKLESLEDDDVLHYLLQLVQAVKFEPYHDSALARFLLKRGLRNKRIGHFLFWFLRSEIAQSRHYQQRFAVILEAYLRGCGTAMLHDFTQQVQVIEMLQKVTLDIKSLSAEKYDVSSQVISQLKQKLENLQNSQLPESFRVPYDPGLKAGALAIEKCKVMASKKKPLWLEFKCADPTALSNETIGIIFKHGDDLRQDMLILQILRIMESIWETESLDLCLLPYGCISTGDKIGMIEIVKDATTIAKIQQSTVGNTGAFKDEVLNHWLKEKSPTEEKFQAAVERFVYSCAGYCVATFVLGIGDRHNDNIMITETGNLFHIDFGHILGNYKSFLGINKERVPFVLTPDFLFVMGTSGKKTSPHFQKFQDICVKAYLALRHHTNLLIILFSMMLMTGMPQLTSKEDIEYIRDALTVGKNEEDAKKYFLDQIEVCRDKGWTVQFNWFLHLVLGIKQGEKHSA
T1 sequence (P42336 whole entry): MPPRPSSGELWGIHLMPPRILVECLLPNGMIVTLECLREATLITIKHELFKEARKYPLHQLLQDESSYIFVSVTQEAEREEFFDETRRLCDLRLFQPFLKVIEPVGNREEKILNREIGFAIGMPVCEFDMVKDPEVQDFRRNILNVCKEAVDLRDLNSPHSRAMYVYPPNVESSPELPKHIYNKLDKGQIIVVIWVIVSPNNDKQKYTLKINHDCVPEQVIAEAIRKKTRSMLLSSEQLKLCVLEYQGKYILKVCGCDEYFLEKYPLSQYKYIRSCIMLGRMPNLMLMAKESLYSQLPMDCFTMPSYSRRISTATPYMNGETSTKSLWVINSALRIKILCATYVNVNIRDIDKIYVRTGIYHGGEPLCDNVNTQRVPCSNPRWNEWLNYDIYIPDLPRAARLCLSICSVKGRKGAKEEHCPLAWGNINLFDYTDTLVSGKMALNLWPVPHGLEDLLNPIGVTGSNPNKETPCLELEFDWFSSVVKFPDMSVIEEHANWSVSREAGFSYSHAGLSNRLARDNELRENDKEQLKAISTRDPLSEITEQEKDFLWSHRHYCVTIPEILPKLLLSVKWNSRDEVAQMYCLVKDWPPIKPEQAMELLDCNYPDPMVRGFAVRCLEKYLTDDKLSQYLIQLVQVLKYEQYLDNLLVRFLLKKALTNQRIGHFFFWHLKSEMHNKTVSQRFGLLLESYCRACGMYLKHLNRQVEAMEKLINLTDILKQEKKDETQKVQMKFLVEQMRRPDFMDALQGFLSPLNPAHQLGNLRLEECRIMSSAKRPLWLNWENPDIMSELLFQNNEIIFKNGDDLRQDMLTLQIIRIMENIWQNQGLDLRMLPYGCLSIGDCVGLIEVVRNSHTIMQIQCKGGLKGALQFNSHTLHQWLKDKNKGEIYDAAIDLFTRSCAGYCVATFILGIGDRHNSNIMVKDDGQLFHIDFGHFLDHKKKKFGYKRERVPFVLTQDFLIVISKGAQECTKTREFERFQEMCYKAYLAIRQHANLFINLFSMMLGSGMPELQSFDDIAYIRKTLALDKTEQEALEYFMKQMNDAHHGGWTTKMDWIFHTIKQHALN
T1 sequence (P27986 whole entry partner): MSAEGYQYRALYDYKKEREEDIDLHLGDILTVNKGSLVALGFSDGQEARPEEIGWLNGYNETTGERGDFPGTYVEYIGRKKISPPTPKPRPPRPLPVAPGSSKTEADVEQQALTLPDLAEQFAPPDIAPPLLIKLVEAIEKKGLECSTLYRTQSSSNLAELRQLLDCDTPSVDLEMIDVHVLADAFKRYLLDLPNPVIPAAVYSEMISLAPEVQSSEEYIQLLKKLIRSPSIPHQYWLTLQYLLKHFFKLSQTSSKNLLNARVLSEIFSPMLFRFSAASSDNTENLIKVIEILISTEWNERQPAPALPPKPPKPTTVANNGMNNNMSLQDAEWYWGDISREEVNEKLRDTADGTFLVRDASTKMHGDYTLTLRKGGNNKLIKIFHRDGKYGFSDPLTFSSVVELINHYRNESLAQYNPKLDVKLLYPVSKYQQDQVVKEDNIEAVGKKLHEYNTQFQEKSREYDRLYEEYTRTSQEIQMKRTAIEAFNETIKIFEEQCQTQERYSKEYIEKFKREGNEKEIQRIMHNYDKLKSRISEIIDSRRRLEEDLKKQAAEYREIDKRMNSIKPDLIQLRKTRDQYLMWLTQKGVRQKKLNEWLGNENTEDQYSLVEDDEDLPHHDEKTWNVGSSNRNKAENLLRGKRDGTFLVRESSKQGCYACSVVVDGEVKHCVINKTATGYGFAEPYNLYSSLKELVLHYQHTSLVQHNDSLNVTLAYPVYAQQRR

Turning to `C=CC(=O)N[C@H]1CC[C@H](C(=O)N(C)Cc2cc3nc(-c4cccc(O)c4)nc(N4CCOCC4)c3s2)CC1` [II-a-42], the pIC50 on PI3Kα (p110α/p85α) and on PI3Kγ (p120γ) was less than 6.00 in each case.
Consider `C=CC(=O)N1CCN(C(=O)c2ccc(-c3cc4nc(-c5cccc6[nH]ncc56)nc(N5CCOCC5)c4s3)cc2)CC1` [II-a-57, 1-(4-(4-(2-(1H-indazol-4-yl)-4-morpholinothieno[3,2-d]pyrimidin-6-yl)benzoyl)piperazin-1-yl)prop-2-en-1-one], for which the pIC50 on PI3Kα (p110α/p85α) was 6.00 to 7.00; on PI3Kγ (p120γ) it was less than 6.00.
As to `C=CC(=O)N1Cc2ccc(-c3cc4nc(-c5cccc(O)c5)nc(N5CCOCC5)c4s3)cc2C1` [II-a-27, 1-(5-(2-(3-hydroxyphenyl)-4-morpholinothieno[3,2-d]pyrimidin-6-yl)isoindolin-2-yl)prop-2-en-1-one], the pIC50 was 6.00 to 7.00 at PI3Kα (p110α/p85α) and less than 6.00 at PI3Kγ (p120γ).
Turning to `CCCC(=O)CCC(=O)NCC(=O)N1CCN(Cc2cc3nc(-c4cccc5[nH]ncc45)nc(N4CCOCC4)c3s2)CC1` [II^R-a-16], the pIC50 at PI3Kα (p110α/p85α) was 6.00 to 7.00; at PI3Kγ (p120γ) it was less than 6.00.
For `C/C=C/C(=O)CCC(=O)N1CCN(c2ccnc3ccc(/C=C4\SC(=O)NC4=O)cc23)CC1` [V-2, (Z)-5-((4-(4-((E)-4-oxohept-5-enoyl)piperazin-1-yl)quinolin-6-yl)methylene)thiazolidine-2,4-dione], in that order: 6.00 to 7.00 and less than 6.00.
In the case of `CN(C/C=C/C(=O)CCC(=O)N1CCN(Cc2cc3nc(-c4cccc5[nH]ncc45)nc(N4CCOCC4)c3s2)CC1)C(=O)OC(C)(C)C` [II-a-24], the pIC50 on PI3Kα (p110α/p85α) was 7.00 to 8.00; at PI3Kγ (p120γ) it was less than 6.00.
With `C=CC(=O)NCCS(=O)(=O)N1CCN(Cc2cc3nc(-c4cccc5[nH]ncc45)nc(N4CCOCC4)c3s2)CC1` [II-a-13, N-(2-(4-((2-(1H-indazol-4-yl)-4-morpholinothieno[3,2-d]pyrimidin-6-yl)methyl)piperazin-1-ylsulfonyl)ethyl)acrylamide], the values for the pIC50 on PI3Kα (p110α/p85α) and on PI3Kγ (p120γ) were 7.00 to 8.00 and less than 6.00, respectively.
As for `C=CC(=O)N(C)CC(=O)N1CCN(Cc2cc3nc(-c4cccc5[nH]ncc45)nc(N4CCOCC4)c3s2)CC1` [II-a-44, N-(2-(4-((2-(1H-indazol-4-yl)-4-morpholinothieno[3,2-d]pyrimidin-6-yl)methyl)piperazin-1-yl)-2-oxoethyl)-N-methylacrylamide], the pIC50 on PI3Kα (p110α/p85α) and at PI3Kγ (p120γ) was less than 6.00 throughout.
For the compound `CN(C)C/C=C/C(=O)NCC(=O)N1CCN(Cc2cc3nc(-c4cccc5[nH]ncc45)nc(N4CCOCC4)c3s2)CC1` [II-a-56, (E)-N-(2-(4-((2-(1H-indazol-4-yl)-4-morpholinothieno[3,2-d]pyrimidin-6-yl)methyl)piperazin-1-yl)-2-oxoethyl)-4-(dimethylamino)but-2-enamide], the figures for the pIC50 at PI3Kα (p110α/p85α) and at PI3Kγ (p120γ) were 6.00 to 7.00 and less than 6.00, respectively.
Turning to `CCCC(=O)CCC(=O)N1CCN(Cc2cc3nc(-c4cccc5[nH]ncc45)nc(N4CCOCC4)c3s2)CC1` [II^R-a-36, 1-(4-((2-(1H-indazol-4-yl)-4-morpholinothieno[3,2-d]pyrimidin-6-yl)methyl)piperazin-1-yl)heptane-1,4-dione], the pIC50 at PI3Kα (p110α/p85α) was less than 6.00. In the test with Phospho-Akt(Ser473), the pEC50 was 6.00 to 7.00.
With `CC(C)=CC(=O)CCC(=O)N1CCC2(CC1)CN(c1cc(-c3cnc(N)nc3)nc(N3CCOCC3)c1)C2` [XII-39, 1-(2-(2-(2-aminopyrimidin-5-yl)-6-morpholinopyridin-4-yl)-2,7-diazaspiro[3.5]nonan-7-yl)-6-methylhept-5-ene-1,4-dione], the pIC50 on PI3Kα (p110α/p85α) is 7.00 to 8.00. Besides, the pEC50 with Phospho-Akt(Ser473) is 6.00 to 7.00.
For `O=C(/C=C/c1ccncc1)CCC(=O)N1CCN(Cc2cc3nc(-c4cccc5[nH]ncc45)nc(N4CCOCC4)c3s2)CC1` [II-a-141, (E)-1-(4-((2-(1H-indazol-4-yl)-4-morpholinothieno[3,2-d]pyrimidin-6-yl)methyl)piperazin-1-yl)-6-(pyridin-4-yl)hex-5-ene-1,4-dione], in that order: 7.00 to 8.00 and 6.00 to 7.00.
